These are literature values, as cited in publication PMC9655391 (International Journal of Molecular Sciences, 2022).

As a reminder, the bioavailability is dose-corrected exposure relative to a reference, in per cent.

SMILES strings stand for the structures.

For this series the following is noted: oral administration; ref [16],[20],[21],[22].

Consider `CCCCc1nc(Cl)c(CO)n1Cc1ccc(-c2ccccc2-c2nn[nH]n2)cc1` [LP, losartan potassium], for which the bioavailability is 32%.
